Source: paper PMC3700763, “First human dose-escalation study with remogliflozin etabonate, a selective inhibitor of the sodium-glucose transporter 2 (SGLT2), in healthy subjects and in subjects with type 2 diabetes mellitus” (BMC Pharmacology & Toxicology, 2013)
Read-outs that look alike come from different tables or passages of the source. Marks after values point to notes of the source that are not given here.

Key:
Assay type in all cases: in vivo, human
[1] = Adverse events after single oral doses, healthy subjects (Part A); details: for Blood creatine phosphokinase increased (adverse events reported by >1 subject in total) / Diarrhea (drug-related adverse events) / Dizziness (drug-related adverse events) / Headache (adverse events reported by >1 subject in total) / Headache (drug-related adverse events) / Hot flush (drug-related adverse events) / At least one adverse event: healthy subjects; for At least one adverse event: n = 8
Method: This double-blind, randomized, placebo-controlled, single escalating-dose crossover study was conducted in two parts: Part A consisted of a randomized, dose-escalation in healthy subjects; Part B was of similar design, but conducted in subjects with T2DM and included an evaluation of pharmacodynamics using a 50 g oral glucose tolerance test (OGTT).
Ten healthy subjects were evaluated in 5 study sessions, each separated by approximately 2 weeks. At each study session, subjects received either an oral dose of remogliflozin etabonate or placebo after an overnight fast. Remogliflozin etabonate doses were 20 mg, 50 mg, 150 mg, 500 mg and 1000 mg. Over the course of participation in the study, each subject received 4 of the 5 active remogliflozin etabonate doses and 1 dose of placebo (4:1 active to placebo ratio per treatment period). The available safety and PK results from each dosing period were evaluated before proceeding to the next dose level.
All subjects were admitted to the unit two nights prior to receiving study drug to establish baseline safety parameters and fluid intake levels over a 36 h period. Subjects remained in the unit for at least 24 h after doses were administered for monitoring of clinical laboratory parameters exploratory biomarkers, vital signs, ECGs and adverse events. While confined to the clinical research unit, all subjects received meals standardized with respect to calories, fat, protein, carbohydrate, and sodium content; however, detailed dietary information was not captured in this study. In Part A, subjects were dosed following an overnight fast; lunch and dinner were provided at 4 and 10 h after dosing, respectively. Fifteen minutes after dosing in each treatment period in Part B, a fasting OGTT was performed using 50 g glucose (administered as 50 g Glucola™). A 50 g glucose load was chosen since the OGTT was being performed in subjects already known to have diabetes. The glucose drink was consumed by subjects within approximately 5 minutes. Blood samples for the measurement of glucose, insulin, and intact glucagon-like peptide 1 (GLP-1) were collected for 24 hours following dose administration. Provided that there were no safety or tolerability concerns, subjects were released from the clinic on day 2 of each treatment period until their return for the next treatment or follow-up period. Each subject was involved in the study for approximately 8 weeks (from screening to follow-up).

[2] = Plasma pharmacokinetics, T2DM subjects; details: human, plasma analyte; for AUC(0-inf): read-out: AUC(0–∞) Geometric mean (CV%); for Cmax: read-out: Cmax Geometric mean (CV%); for Tmax: read-out: Tmax Median; for half-life: read-out: T½ Geometric mean (CV%) (converted)
Method: Six subjects with T2DM received two doses of remogliflozin etabonate and a placebo dose, in a randomized, dose escalating, crossover design, along with an oral glucose load on three study sessions separated by 7–14 days. Full PK and safety profiles were measured on Day 1 of each dosing period. The doses selected for this portion of the study, 50 mg and 500 mg, were based on data obtained in Part A. In each dosing period, subjects were assigned to active vs placebo in a 2:1 ratio. On each dosing day, a series of 2.0 mL blood samples were collected at pre-dose and 10, 20, 30 and 45 min, and 1, 1.25, 1.5, 2, 2.5, 3, 4, 6, 8, 12, 16, and 24 h post-dose for the determination of remogliflozin etabonate, remogliflozin and GSK279782 in plasma by using high-performance liquid chromatography with tandem mass spectrometry (MS/MS) as described. Non-compartmental PK analysis of plasma concentration–time data was performed using WinNonlin Version 4.1 (Pharsight Corporation, Mountainview, CA, USA). The Cmax and Tmax were obtained directly from the data. Areas under the plasma concentration–time curves from time zero to the last quantifiable time point (AUC[0–last]) and extrapolated to infinity (AUC[0–∞]) were calculated using the log-linear trapezoidal method. The terminal plasma elimination rate-constant (λz) was estimated from log-linear regression analysis of the terminal phase of the plasma concentration–time curve, and the T½ was calculated as T½ = ln2/λz. Ratios of AUC(0–∞) remogliflozin to AUC(0–last) remogliflozin etabonate were calculated including molecular weight corrections.

[3] = 24-h urine electrolyte excretion, T2DM subjects; details: mean (SD)
Method: (§1) Urine samples were collected at pre-dose, and over a series of intervals (0–2, 2–4, 4–6, 6–8, 8–12 and 12–24 h post-dose) for the analysis of creatinine, glucose and electrolytes (Na, K and Cl). All fluid intake was recorded, as well as urine volume, over the 24 hours before and after dosing in each treatment period. Urine was tested for protein on the first morning void of day -1 and 24 h after dosing.

[4] = Fluid balance, T2DM subjects; details: mean (SD)
Method: as §1

[5] = remogliflozin etabonate 50 mg oral dose
[6] = remogliflozin etabonate 500 mg oral dose (prodrug n = 2)
[7] = remogliflozin etabonate 500 mg oral dose

## CCOC(=O)OC[C@H]1O[C@@H](Oc2nn(C(C)C)c(C)c2Cc2ccc(OC(C)C)cc2)[C@H](O)[C@@H](O)[C@@H]1O [Remogliflozin etabonate, remogliflozin etabonate]
[1]; all subjects, single oral doses 20-1000 mg, no deaths, serious adverse events or withdrawals
  Tolerability: generally well-tolerated
[1]; 20 mg single oral dose
  Blood creatine phosphokinase increased (adverse events reported by >1 subject in total): 0 n (%)
  Diarrhea (drug-related adverse events): 1 (13) n (%)
  Dizziness (drug-related adverse events): 0 n (%)
  Headache (adverse events reported by >1 subject in total): 1 (13) n (%)
  Headache (drug-related adverse events): 1 (13) n (%)
  Hot flush (drug-related adverse events): 0 n (%)
  At least one adverse event: 2 (25) n (%)
[1]; 50 mg single oral dose
  Blood creatine phosphokinase increased (adverse events reported by >1 subject in total): 0 n (%)
  Diarrhea (drug-related adverse events): 0 n (%)
  Dizziness (drug-related adverse events): 0 n (%)
  Headache (adverse events reported by >1 subject in total): 1 (13) n (%)
  Headache (drug-related adverse events): 1 (13) n (%)
  Hot flush (drug-related adverse events): 0 n (%)
  At least one adverse event: 3 (38) n (%)
[1]; 150 mg single oral dose
  Blood creatine phosphokinase increased (adverse events reported by >1 subject in total): 0 n (%)
  Diarrhea (drug-related adverse events): 0 n (%)
  Dizziness (drug-related adverse events): 0 n (%)
  Headache (adverse events reported by >1 subject in total): 0 n (%)
  Headache (drug-related adverse events): 0 n (%)
  Hot flush (drug-related adverse events): 0 n (%)
  At least one adverse event: 1 (13) n (%)
[1]; 500 mg single oral dose
  Blood creatine phosphokinase increased (adverse events reported by >1 subject in total): 1 (13) n (%)
  Diarrhea (drug-related adverse events): 0 n (%)
  Dizziness (drug-related adverse events): 0 n (%)
  Headache (adverse events reported by >1 subject in total): 2 (25) n (%)
  Headache (drug-related adverse events): 0 n (%)
  Hot flush (drug-related adverse events): 0 n (%)
  At least one adverse event: 3 (38) n (%)
[1]; 1000 mg single oral dose
  Blood creatine phosphokinase increased (adverse events reported by >1 subject in total): 0 n (%)
  Diarrhea (drug-related adverse events): 0 n (%)
  Dizziness (drug-related adverse events): 1 (13) n (%)
  Headache (adverse events reported by >1 subject in total): 1 (13) n (%)
  Headache (drug-related adverse events): 1 (13) n (%)
  Hot flush (drug-related adverse events): 1 (13) n (%)
  At least one adverse event: 1 (13) n (%)
[2]; [5]
  AUC(0-inf): 8.91 ng·h/mL
  Cmax: 9.56 ng/mL
  Tmax: 34.8 min
  half-life: 36.6 min
[2]; [6]
  AUC(0-inf): 91.9 ng·h/mL
  half-life: 49.2 min
[2]; [7]
  Cmax: 83.9 ng/mL
  Tmax: 45 min
[3]; 50 mg single dose, n = 5
  Urinary chloride excretion: 168 (23.9)^c mmol
  Urinary potassium excretion: 65.8 (4.5)^c mmol
  Urinary sodium excretion: 173 (35.5)^c mmol
[3]; 500 mg single dose
  Urinary chloride excretion: 287 (147) mmol
  Urinary potassium excretion: 108 (65.8) mmol
  Urinary sodium excretion: 301 (128) mmol
[4]; 0–12 h post-dose, 50 mg
  Fluid balance (total fluid intake minus total urine volume): -78(433) mL
[4]; 0–12 h post-dose, 500 mg
  Fluid balance (total fluid intake minus total urine volume): -29 (749) mL
[4]; 12–24 h post-dose, 50 mg
  Fluid balance (total fluid intake minus total urine volume): -803 (658) mL
[4]; 12–24 h post-dose, 500 mg
  Fluid balance (total fluid intake minus total urine volume): -1088(679) mL
[4]; -24 h to pre-dose (baseline before dosing), 50 mg period
  Fluid balance (total fluid intake minus total urine volume): -504 (294) mL
[4]; -24 h to pre-dose (baseline before dosing), 500 mg period
  Fluid balance (total fluid intake minus total urine volume): 188 (1879) mL
[4]; -24 h to pre-dose (baseline before dosing), 500 mg period, listed as remogliflozin etabonate
  Fluid balance (total fluid intake minus total urine volume): +188 mL
